Results reported in paper PMC6979384, “Characterization of the plant homeodomain (PHD) reader family for their histone tail interactions” (Epigenetics & Chromatin, 2020).

Tests used:
Assay in all cases: Histone peptide microarray
Assay type in all cases: binding, human
PHF2 = conditions: GST-tagged PHF2; histone peptide array; arrays performed twice, n of 4
Procedure, shortened: (§1)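 Recombinant GST-PHD protein at 0.5 μM; 293-member modified histone peptide array; signals averaged from four repeats ± SD.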

BPTF (PB) = conditions: GST-tagged BPTF (PB = PHD + Bromodomain); histone peptide array; arrays performed twice, n of 4
Procedure, shortened: as §1

ING1 = conditions: GST-tagged ING1; histone peptide array; arrays performed twice, n of 4
Procedure, shortened: as §1

KDM5A (3) = conditions: GST-tagged KDM5A (3); histone peptide array; arrays performed twice, n of 4
Procedure, shortened: as §1

KDM5A (1) = conditions: GST-tagged KDM5A (1); histone peptide array; arrays performed twice, n of 4
Procedure, shortened: as §1

ING2 = conditions: GST-tagged ING2; histone peptide array; arrays performed twice, n of 4
Procedure, shortened: as §1

TAF3 = conditions: GST-tagged TAF3; histone peptide array; arrays performed twice, n of 4
Procedure, shortened: as §1

MORC3 (CW) = conditions: GST-tagged MORC3 (CW = CW-type Zn-finger); histone peptide array; arrays performed twice, n of 4
Procedure, shortened: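 GST-tagged PHD readers, 0.5 μM, probed on a microarray of 293 synthetic histone peptides carrying single or combinatorial PTMs (optimized Petell protocol). Signals are averaged over 4 replicates and expressed as relative binding.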

CHD5 (PCC) = conditions: GST-tagged CHD5 (PCC = PHD + Dual Chromodomain); histone peptide array; arrays performed twice, n of 4
Procedure, shortened: as §1

PHF8 = conditions: GST-tagged PHF8; histone peptide array; arrays performed twice, n of 4
Procedure, shortened: as §1

CHD5 (PPCC) = conditions: GST-tagged CHD5 (PPCC = Dual PHD + Dual Chromodomain); histone peptide array; arrays performed twice, n of 4
Procedure, shortened: as §1

KDM4C (TTP) = conditions: GST-tagged KDM4C (TTP = Tandem Tudor domain + PHD); histone peptide array; arrays performed twice, n of 4
Procedure, shortened: as §1

PHF13 = conditions: GST-tagged PHF13; histone peptide array; arrays performed twice, n of 4
Procedure, shortened: as §1

KDM5B (1) = conditions: GST-tagged KDM5B (1); histone peptide array; arrays performed twice, n of 4
Procedure, shortened: as §1

ING5 = conditions: GST-tagged ING5; histone peptide array; arrays performed twice, n of 4
Procedure, shortened: as §1

ING3 = conditions: GST-tagged ING3; histone peptide array; arrays performed twice, n of 4
Procedure, shortened: as §1

TRIM66 (PB) = conditions: GST-tagged TRIM66 (PB = PHD + Bromodomain); histone peptide array; arrays performed twice, n of 4
Procedure, shortened: as §1

PHF21A = conditions: GST-tagged PHF21A; histone peptide array; arrays performed twice, n of 4
Procedure, shortened: as §1

PHRF1 (RP) = conditions: GST-tagged PHRF1 (RP); histone peptide array; arrays performed twice, n of 4
Procedure, shortened: as §1

RAG2 = conditions: GST-tagged RAG2; histone peptide array; arrays performed twice, n of 4
Procedure, shortened: as §1

CHD4 (PPCC) = conditions: GST-tagged CHD4 (PPCC = Dual PHD + Dual Chromodomain); histone peptide array; arrays performed twice, n of 4
Procedure, shortened: as §1

PHF23 = conditions: GST-tagged PHF23; histone peptide array; arrays performed twice, n of 4
Procedure, shortened: as §1

MLL5 = conditions: GST-tagged MLL5; histone peptide array; arrays performed twice, n of 4
Procedure, shortened: as §1

SP140L = conditions: GST-tagged SP140L; histone peptide array; arrays performed twice, n of 4
Procedure, shortened: as §1

ING4 = conditions: GST-tagged ING4; histone peptide array; arrays performed twice, n of 4
Procedure, shortened: as §1

AIRE (PP) = conditions: GST-tagged AIRE (PP); histone peptide array; arrays performed twice, n of 4
Procedure, shortened: as §1

DPF2 (PPC2W2) = conditions: GST-tagged DPF2 (PPC2W2 = Dual PHD + C2W2-type Zn-finger); histone peptide array; arrays performed twice, n of 4
Procedure, shortened: as §1

BAZ2B = conditions: GST-tagged BAZ2B; histone peptide array; arrays performed twice, n of 4
Procedure, shortened: as §1

DIDO1 = conditions: GST-tagged DIDO1; histone peptide array; arrays performed twice, n of 4
Procedure, shortened: as §1

KDM5B (3) = conditions: GST-tagged KDM5B (3); histone peptide array; arrays performed twice, n of 4
Procedure, shortened: as §1

KDM7A = conditions: GST-tagged KDM7A; histone peptide array; arrays performed twice, n of 4
Procedure, shortened: as §1

Row | Substance | Array Heatmap signal, PHF2 (PHF2) | Array Heatmap signal, BPTF (PB) (BPTF (PB)) | Array Heatmap signal, ING1 (ING1) | Array Heatmap signal, KDM5A (3) (KDM5A (3)) | Array Heatmap signal, KDM5A (1) (KDM5A (1)) | Array Heatmap signal, ING2 (ING2) | Array Heatmap signal, TAF3 (TAF3) | Array Heatmap signal, MORC3 (CW) (MORC3 (CW)) | Array Heatmap signal, CHD5 (PCC) (CHD5 (PCC)) | Array Heatmap signal, PHF8 (PHF8) | Array Heatmap signal, CHD5 (PPCC) (CHD5 (PPCC)) | Array Heatmap signal, KDM4C (TTP) (KDM4C (TTP)) | Array Heatmap signal, PHF13 (PHF13) | Array Heatmap signal, KDM5B (1) (KDM5B (1)) | Array Heatmap signal, ING5 (ING5) | Array Heatmap signal, ING3 (ING3) | Array Heatmap signal, TRIM66 (PB) (TRIM66 (PB)) | Array Heatmap signal, PHF21A (PHF21A) | Array Heatmap signal, PHRF1 (RP) (PHRF1 (RP)) | Array Heatmap signal, RAG2 (RAG2) | further results
1 | H4K12ac + K16ac + K20me1: H4 11-27 | 0.5516 | 0.3283 | 0.5716 | 0.4519 | 0.4176 | 0.5978 | 0.2511 | 0.3309 | 0.6765 | 0.3408 | 0.5143 | 0.4269 | 0.5671 | 0.5461 | 0.3345 | 0.451 | 0.5407 | 0.4255 | 0.4296 | 0.2293 | Array Heatmap signal, CHD4 (PPCC) (CHD4 (PPCC)): 0.5474; Array Heatmap signal, PHF23 (PHF23): 0.5291; Array Heatmap signal, MLL5 (MLL5): 0.5572; Array Heatmap signal, SP140L (SP140L): 0.3459; Array Heatmap signal, ING4 (ING4): 0.4334; Array Heatmap signal, AIRE (PP) (AIRE (PP)): 0.384; Array Heatmap signal, DPF2 (PPC2W2) (DPF2 (PPC2W2)): 0.6625; Array Heatmap signal, BAZ2B (BAZ2B): 0.4211; Array Heatmap signal, DIDO1 (DIDO1): 0.7187; Array Heatmap signal, KDM5B (3) (KDM5B (3)): 0.4151; Array Heatmap signal, KDM7A (KDM7A): 0.3032
2 | H4K12ac + K16ac + K20me2: H4 11-27 | 0.4604 | 0.3936 | 0.5241 | 0.5092 | 0.4994 | 0.6089 | 0.2922 | 0.4076 | 0.8229 | 0.3877 | 0.6049 | 0.537 | 0.6561 | 0.6899 | 0.405 | 0.5264 | 0.6093 | 0.4824 | 0.4498 | 0.281 | Array Heatmap signal, CHD4 (PPCC) (CHD4 (PPCC)): 0.5676; Array Heatmap signal, PHF23 (PHF23): 0.5618; Array Heatmap signal, MLL5 (MLL5): 0.5834; Array Heatmap signal, SP140L (SP140L): 0.3577; Array Heatmap signal, ING4 (ING4): 0.4756; Array Heatmap signal, AIRE (PP) (AIRE (PP)): 0.4913; Array Heatmap signal, DPF2 (PPC2W2) (DPF2 (PPC2W2)): 0.6546; Array Heatmap signal, BAZ2B (BAZ2B): 0.5022; Array Heatmap signal, DIDO1 (DIDO1): 0.7262; Array Heatmap signal, KDM5B (3) (KDM5B (3)): 0.5172; Array Heatmap signal, KDM7A (KDM7A): 0.418
3 | H4K12ac + K16ac + K20me3: H4 11-27 | 0.4705 | 0.3647 | 0.5304 | 0.4096 | 0.5006 | 0.5812 | 0.2674 | 0.4027 | 0.9097 | 0.3563 | 0.6012 | 0.5508 | 0.6523 | 0.6527 | 0.3933 | 0.4869 | 0.6534 | 0.52 | 0.4386 | 0.2525 | Array Heatmap signal, CHD4 (PPCC) (CHD4 (PPCC)): 0.6123; Array Heatmap signal, PHF23 (PHF23): 0.5129; Array Heatmap signal, MLL5 (MLL5): 0.5614; Array Heatmap signal, SP140L (SP140L): 0.368; Array Heatmap signal, ING4 (ING4): 0.5105; Array Heatmap signal, AIRE (PP) (AIRE (PP)): 0.5868; Array Heatmap signal, DPF2 (PPC2W2) (DPF2 (PPC2W2)): 0.7109; Array Heatmap signal, BAZ2B (BAZ2B): 0.5532; Array Heatmap signal, DIDO1 (DIDO1): 0.6408; Array Heatmap signal, KDM5B (3) (KDM5B (3)): 0.5038; Array Heatmap signal, KDM7A (KDM7A): 0.4502
